In US7772241B2, “Variolin derivatives and their use as antitumor agents” (Pharma Mar S.A., priority 2001, dated 2010):
Read-outs that look alike come from different tables or passages of the source.

What was measured:
[1] = test system: PANC-1; assay: Inhibition of cells growth by colorimetric (SRB) assay, PANC-1; settings: for GI50 / CC50: Homo sapiens, PANC-1, 48 h; for GI50: read-out: GI50 PANC-1, SRB assay, 48 hours exposure; for CC50: read-out: LC50 PANC-1, SRB assay, 48 hours exposure; for TGI PANC-1: SRB assay, 48 hours exposure
Outline: (§1)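 Human tumour cells seeded at 5×10^3/well in RPMI 1640 10% FBS, attached 18 h, then exposed 48 h to samples at 10 to 10^−8 μg/ml in DMSO/EtOH/PBS (0.5:0.5:99). Growth read by SRB staining after TCA fixation, OD 490 nm, triplicate wells; GI, TGI and LC derived.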

[2] = test system: SK-OV-3; assay: Inhibition of cells growth by colorimetric (SRB) assay, SK-OV-3; settings: for CC50: read-out: LC50 SKOV-3, SRB assay, 48 hours exposure
Outline: as §1

[3] = Inhibition of cells growth by colorimetric (SRB) assay, HMEC1; settings: human, HMEC1 cells, LC50 H-MEC-1, SRB assay, 48 hours exposure
[4] = test system: HMEC1; assay: as above; settings: for TGI H-MEC-1: in M (unit assumed)
[5] = test system: A-549; assay: Inhibition of cells growth by colorimetric (SRB) assay, A-549
Outline: as §1

[6] = test system: SK-BR-3; assay: Inhibition of cells growth by colorimetric (SRB) assay, SK-BR-3; settings: for GI50: read-out: GI50 SK-BR-3, SRB assay, 48 hours exposure
Outline: as §1

[7] = test system: IGROV-1; assay: Inhibition of cells growth by colorimetric (SRB) assay, IGROV-1
Outline: as §1

[8] = test system: LNCaP; assay: Inhibition of cells growth by colorimetric (SRB) assay, LNCaP
Outline: as §1

[9] = test system: K-562; assay: Inhibition of cells growth by colorimetric (SRB) assay, K-562
Outline: as §1

[10] = test system: DU-145; assay: Inhibition of cells growth by colorimetric (SRB) assay, DU-145; settings: for GI50: read-out: GI50 DU-145, SRB assay, 48 hours exposure
Outline: as §1

[11] = test system: LoVo; assay: Inhibition of cells growth by colorimetric (SRB) assay, LoVo; settings: for GI50 / CC50: Homo sapiens, LoVo, 48 h; for GI50: read-out: GI50 LOVO, SRB assay, 48 hours exposure; for CC50: read-out: LC50 LOVO, SRB assay, 48 hours exposure; for TGI LOVO: SRB assay, 48 hours exposure
Outline: as §1

[12] = test system: HT-29; assay: Inhibition of cells growth by colorimetric (SRB) assay, HT-29; settings: for GI50 / CC50: Homo sapiens, HT-29, 48 h; for GI50: read-out: GI50 HT-29, SRB assay, 48 hours exposure; for CC50: read-out: LC50 HT-29, SRB assay, 48 hours exposure; for TGI HT-29: SRB assay, 48 hours exposure
Outline: as §1

[13] = test system: SK-MEL-28; assay: Inhibition of cells growth by colorimetric (SRB) assay, SK-MEL-28; settings: for GI50 / CC50: Homo sapiens, SK-MEL-28, 48 h; for GI50: read-out: GI50 MEL-28, SRB assay, 48 hours exposure; for CC50: read-out: LC50 MEL-28, SRB assay, 48 hours exposure; for TGI MEL-28: SRB assay, 48 hours exposure
Outline: as §1

[14] = test system: LoVo-Dox; assay: Inhibition of cells growth by colorimetric (SRB) assay, LoVo-Dox; settings: for GI50 / CC50: Homo sapiens, 48 h; for GI50: read-out: GI50 LOVO-DOX, SRB assay, 48 hours exposure; for CC50: read-out: LC50 LOVO-DOX, SRB assay, 48 hours exposure; for TGI LOVO-DOX: SRB assay, 48 hours exposure
Outline: as §1

[15] = test system: IGROV-ET; assay: Inhibition of cells growth by colorimetric (SRB) assay, IGROV-ET; settings: for CC50: read-out: LC50 IGROV-ET, SRB assay, 48 hours exposure
Outline: as §1

[16] = read-out: GI50 SKOV-3, SRB assay, 48 hours exposure
[17] = read-out: GI50 LN-caP, SRB assay, 48 hours exposure
[18] = read-out: LC50 LN-caP, SRB assay, 48 hours exposure
[19] = read-out: GI50 K-562, SRB assay, 48 hours exposure
[20] = read-out: LC50 K-562, SRB assay, 48 hours exposure
[21] = read-out: LC50 DU-145, SRB assay, 48 hours exposure
[22] = read-out: GI50 IGROV-ET, SRB assay, 48 hours exposure
[23] = Homo sapiens, HMEC-1, 48 h, read-out: GI50 H-MEC-1, SRB assay, 48 hours exposure
[24] = Homo sapiens, A549, 48 h, read-out: GI50 A-549, SRB assay, 48 hours exposure
[25] = Homo sapiens, A549, 48 h, read-out: LC50 A-549, SRB assay, 48 hours exposure
[26] = Homo sapiens, SK-BR-3, 48 h, read-out: LC50 SK-BR-3, SRB assay, 48 hours exposure
[27] = Homo sapiens, IGROV-1, 48 h, read-out: GI50 IGROV, SRB assay, 48 hours exposure
[28] = Homo sapiens, IGROV-1, 48 h, read-out: LC50 IGROV, SRB assay, 48 hours exposure

COc1nccc(-c2c3cccnc3n3c(N)nccc23)n1.Cl [Compound 81]
GI50 [1]: 1000 nM
CC50 [1]: ≥ 30400 nM
TGI PANC-1 [1]: 2.86E−06
CC50 ([2]; Homo sapiens, SK-OV-3, 48 h): 34500 nM
TGI SKOV-3 ([2]; SRB assay, 48 hours exposure): 8.52E−06
GI50 [2, 16]: 797 nM
CC50 at 48 h [3]: 858 nM
TGI H-MEC-1 ([4]; SRB assay, 48 hours exposure): 2.62E−07
GI50 ([4]; read-out: GI50 H-MEC-1, SRB assay, 48 hours exposure): 171 nM
TGI A-549 ([5]; SRB assay, 48 hours exposure): 3.04E−05
GI50 ([5]; read-out: GI50 A-549, SRB assay, 48 hours exposure): ≥ 30400 nM
CC50 ([5]; read-out: LC50 A-549, SRB assay, 48 hours exposure): ≥ 30400 nM
GI50 ([6]; Homo sapiens, SK-BR-3, 48 h): 855 nM
TGI SK-BR-3 ([6]; SRB assay, 48 hours exposure): 2.26E−06
CC50 ([6]; read-out: LC50 SK-BR-3, SRB assay, 48 hours exposure): 9490 nM
TGI IGROV ([7]; SRB assay, 48 hours exposure): 2.70E−06
GI50 ([7]; read-out: GI50 IGROV, SRB assay, 48 hours exposure): 210 nM
CC50 ([7]; read-out: LC50 IGROV, SRB assay, 48 hours exposure): 20500 nM
TGI LN-caP ([8]; SRB assay, 48 hours exposure): 2.61E−07
GI50 [8, 17]: 158 nM
CC50 [8, 18]: 2770 nM
TGI K-562 ([9]; SRB assay, 48 hours exposure): 3.29E−07
GI50 [9, 19]: 79.1 nM
CC50 [9, 20]: 523 nM
GI50 ([10]; Homo sapiens, DU-145, 48 h): 928 nM
TGI DU-145 ([10]; SRB assay, 48 hours exposure): 2.40E−06
CC50 [10, 21]: > 30400 nM
GI50 [11]: 224 nM
CC50 [11]: ≥ 30400 nM
TGI LOVO [11]: 1.77E−06
GI50 [12]: 1300 nM
CC50 [12]: ≥ 30400 nM
TGI HT-29 [12]: 3.04E−05
GI50 [13]: 313 nM
CC50 [13]: 1740 nM
TGI MEL-28 [13]: 7.36E−07
GI50 [14]: 706 nM
CC50 [14]: ≥ 30400 nM
TGI LOVO-DOX [14]: 3.04E−06
CC50 ([15]; Homo sapiens, 48 h): ≥ 30400 nM
TGI IGROV-ET ([15]; SRB assay, 48 hours exposure): 2.28E−07
GI50 [15, 22]: 85.5 nM

CCOc1nccc(-c2c3cccnc3n3c(N)nccc23)n1.Cl [Compound 82]
GI50 [1]: 1030 nM
CC50 [1]: 29200 nM
TGI PANC-1 [1]: 6.77E−06
TGI SKOV-3 ([2]; SRB assay, 48 hours exposure): 2.91E−06
GI50 [2, 16]: 992 nM
CC50 at 48 h [3]: 1550 nM
GI50 [4, 23]: 341 nM
TGI H-MEC-1 ([4]; SRB assay, 48 hours exposure): 7.29E−07
GI50 [5, 24]: 29200 nM
CC50 [5, 25]: 29200 nM
TGI A-549 ([5]; SRB assay, 48 hours exposure): 2.92E−05
GI50 ([6]; Homo sapiens, SK-BR-3, 48 h): 560 nM
CC50 [6, 26]: 2260 nM
TGI SK-BR-3 ([6]; SRB assay, 48 hours exposure): 1.12E−06
GI50 [7, 27]: 971 nM
CC50 [7, 28]: 29200 nM
TGI IGROV ([7]; SRB assay, 48 hours exposure): 1.76E−06
TGI LN-caP ([8]; SRB assay, 48 hours exposure): 1.57E−06
GI50 [8, 17]: 887 nM
CC50 [8, 18]: 2280 nM
TGI K-562 ([9]; SRB assay, 48 hours exposure): 7.32E−07
GI50 [9, 19]: 531 nM
CC50 [9, 20]: 1010 nM
GI50 ([10]; Homo sapiens, DU-145, 48 h): 715 nM
TGI DU-145 ([10]; SRB assay, 48 hours exposure): 1.51E−06
CC50 [10, 21]: 2920 nM
GI50 [11]: 665 nM
CC50 [11]: 29200 nM
TGI LOVO [11]: 2.15E−06
GI50 [12]: 712 nM
TGI HT-29 [12]: 2.92E−06
GI50 [13]: 365 nM
CC50 [13]: 1730 nM
TGI MEL-28 [13]: 7.93E−07
GI50 [14]: 700 nM
CC50 [14]: 12100 nM
TGI LOVO-DOX [14]: 2.72E−06
CC50 ([15]; Homo sapiens, 48 h): 29200 nM
TGI IGROV-ET ([15]; SRB assay, 48 hours exposure): 2.32E−07
GI50 [15, 22]: 89 nM

Nc1nccc2c(-c3cccs3)c3cccnc3n12 [Compound 65]
GI50 [1]: ≥ 37500 nM
CC50 [1]: ≥ 37500 nM
TGI PANC-1 [1]: 3.75E−05
GI50 ([2]; Homo sapiens, SK-OV-3, 48 h, read-out: GI50 SKOV-3, SRB assay, 48 hours exposure): ≥ 37500 nM
CC50 ([2]; Homo sapiens, SK-OV-3, 48 h): ≥ 37500 nM
TGI SKOV-3 ([2]; SRB assay, 48 hours exposure): 3.75E−05
CC50 at 48 h [3]: ≥ 37500 nM
GI50 [4, 23]: 11800 nM
TGI H-MEC-1 ([4]; SRB assay, 48 hours exposure): 3.75E−05
GI50 [5, 24]: 26400 nM
CC50 [5, 25]: ≥ 37500 nM
TGI A-549 ([5]; SRB assay, 48 hours exposure): 3.75E−05
GI50 ([6]; Homo sapiens, SK-BR-3, 48 h): 1460 nM
CC50 [6, 26]: ≥ 37500 nM
TGI SK-BR-3 ([6]; SRB assay, 48 hours exposure): 3.75E−05
GI50 [7, 27]: ≥ 37500 nM
CC50 [7, 28]: ≥ 37500 nM
TGI IGROV ([7]; SRB assay, 48 hours exposure): 3.75E−05
GI50 ([8]; Homo sapiens, LNCaP, 48 h, read-out: GI50 LN-caP, SRB assay, 48 hours exposure): 17100 nM
CC50 ([8]; Homo sapiens, LNCaP, 48 h, read-out: LC50 LN-caP, SRB assay, 48 hours exposure): ≥ 37500 nM
TGI LN-caP ([8]; SRB assay, 48 hours exposure): 3.75E−05
GI50 ([9]; Homo sapiens, K562, 48 h, read-out: GI50 K-562, SRB assay, 48 hours exposure): ≥ 37500 nM
CC50 ([9]; Homo sapiens, K562, 48 h, read-out: LC50 K-562, SRB assay, 48 hours exposure): ≥ 37500 nM
TGI K-562 ([9]; SRB assay, 48 hours exposure): 3.75E−05
GI50 ([10]; Homo sapiens, DU-145, 48 h): ≥ 37500 nM
CC50 ([10]; Homo sapiens, DU-145, 48 h, read-out: LC50 DU-145, SRB assay, 48 hours exposure): ≥ 37500 nM
TGI DU-145 ([10]; SRB assay, 48 hours exposure): 3.75E−05
GI50 [11]: ≥ 37500 nM
CC50 [11]: ≥ 37500 nM
TGI LOVO [11]: 3.75E−05
GI50 [12]: ≥ 37500 nM
CC50 [12]: ≥ 37500 nM
TGI HT-29 [12]: 3.75E−05
GI50 [13]: ≥ 37500 nM
CC50 [13]: ≥ 37500 nM
TGI MEL-28 [13]: 3.75E−05
GI50 [14]: ≥ 37500 nM
CC50 [14]: ≥ 37500 nM
TGI LOVO-DOX [14]: 3.75E−05
GI50 ([15]; Homo sapiens, 48 h, read-out: GI50 IGROV-ET, SRB assay, 48 hours exposure): ≥ 37500 nM
CC50 ([15]; Homo sapiens, 48 h): ≥ 37500 nM
TGI IGROV-ET ([15]; SRB assay, 48 hours exposure): 3.75E−05
